This assay concerns the target T1, human RORγ-LBD (Homo sapiens, UniProt P51449).
T1 construct: made in house; host or cells: E. coli (BL-21)
T1 sequence (P51449 262-518): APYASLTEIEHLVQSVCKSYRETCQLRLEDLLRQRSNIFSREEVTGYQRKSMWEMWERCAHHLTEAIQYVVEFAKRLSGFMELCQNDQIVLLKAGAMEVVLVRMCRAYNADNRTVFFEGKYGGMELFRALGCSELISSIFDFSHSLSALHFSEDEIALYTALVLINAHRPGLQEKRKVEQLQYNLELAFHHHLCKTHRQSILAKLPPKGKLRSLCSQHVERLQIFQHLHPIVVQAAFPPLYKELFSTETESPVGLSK
Nature of the assay: ROR gamma coactivator peptide recruitment Alphascreen assay (RORγ-LBD binding to GRIP1 coactivator peptide). In kind it is biochemical. Particulars: 5 nM human RORγ-LBD, 30 nM 7-β-hydroxycholesterol, 50 nM biotinylated GRIP1 coactivator peptide, overnight incubation at room temperature; read-out: result (pIC50, RORγ coactivator peptide recruitment Alphascreen assay) (converted). The essentials:
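Alphascreen proximity read-out after overnight room-temperature incubation, yielding pIC50 from 1-in-2 compound series (2.5% DMSO final). Mixture: 50 nM biotin-GRIP1 peptide, 30 nM 7-β-hydroxycholesterol agonist, 5 nM recombinant 6×His:Flag human RORγ-LBD (aa 262-518), 50 mM HEPES pH 7.4.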
On the technique in general: Bead proximity is the source of the signal in Alpha formats.
For the molecule `CC1(C)CC[C@@H](CN(CC(=O)c2c(Cl)cccc2Cl)C(=O)c2cnn([C@H]3CC[C@](C)(C(=O)O)CC3)c2C(F)(F)F)O1` [Example 838, trans-4-(4-((2-(2,6-dichlorophenyl)-2-oxoethyl)(((2S)-5,5-dimethyltetrahydro-2-furanyl)methyl)carbamoyl)-5-(trifluoromethyl)-1H-pyrazol-1-yl)-1-methylcyclohexanecarboxylic acid], the IC50 is 13.8 nM.
With `CC1(C)CC[C@H](CN(CC(=O)c2c(Cl)cccc2Cl)C(=O)c2cnn([C@H]3CC[C@](C)(C(=O)O)CC3)c2C(F)(F)F)O1` [Example 839, trans-4-(4-((2-(2,6-dichlorophenyl)-2-oxoethyl)(((2S)-5,5-dimethyltetrahydro-2-furanyl)methyl)carbamoyl)-5-(trifluoromethyl)-1H-pyrazol-1-yl)-1-methylcyclohexanecarboxylic acid] the figure was 7.24 nM.
With `C[C@]1(C(=O)O)CC[C@H](n2ncc(C(=O)N(C[C@H](O)c3c(Cl)cncc3Cl)CC3(F)CC3)c2C(F)(F)F)CC1` [Example 840, trans-4-(4-(((2R)-2-(3,5-dichloro-4-pyridinyl)-2-hydroxyethyl)((1-fluorocyclopropyl)methyl)carbamoyl)-5-(trifluoromethyl)-1H-pyrazol-1-yl)-1-methylcyclohexanecarboxylic acid] the figure was 240 nM; with `CC(C)(C)CN(CC(=O)c1c(Cl)cncc1Cl)C(=O)c1cnn([C@H]2CC[C@@H](CS(C)(=O)=O)CC2)c1C(F)(F)F` [Example 841, N-(2-(3,5-dichloro-4-pyridinyl)-2-oxoethyl)-N-(2,2-dimethylpropyl)-1-(cis-4-((methylsulfonyl)methyl)cyclohexyl)-5-(trifluoromethyl)-1H-pyrazole-4-carboxamide], 195 nM.
With `COC1(CN(CC(=O)c2c(Cl)cncc2Cl)C(=O)c2cnn([C@H]3CC[C@](C)(C(=O)O)CC3)c2C(F)(F)F)CC1` [Example 844, trans-4-(4-((2-(3,5-dichloro-4-pyridinyl)-2-oxoethyl)((1-methoxycyclopropyl)methyl)carbamoyl)-5-(trifluoromethyl)-1H-pyrazol-1-yl)-1-methylcyclohexanecarboxylic acid] the figure was 30.2 nM; with `C[C@@H]1C[C@@H](n2ncc(C(=O)N(CC(=O)c3c(Cl)ccc(F)c3Cl)[C@H]3C[C@@H]4[C@H](C3)C4(C)C)c2C(F)(F)F)CC[C@@H]1C(=O)O` [Example 845, (1S,2R,4S)-4-(4-((2-(2,6-dichloro-3-fluorophenyl)-2-oxoethyl)((1R,3r,5S)-6,6-dimethylbicyclo[3.1.0]hexan-3-yl)carbamoyl)-5-(trifluoromethyl)-1H-pyrazol-1-yl)-2-methylcyclohexanecarboxylic acid], 1.45 nM; with `CC1(C)[C@@H]2C[C@H](N(CC(=O)c3c(Cl)cccc3Cl)C(=O)c3cnn([C@H]4C[C@@H](CC(=O)O)C4)c3C(F)(F)F)C[C@@H]21` [Example 846, (cis-3-(4-((2-(2,6-dichlorophenyl)-2-oxoethyl)((1R,3r,5S)-6,6-dimethylbicyclo[3.1.0]hex-3-yl)carbamoyl)-5-(trifluoromethyl)-1H-pyrazol-1-yl)cyclobutyl)acetic acid], 2.4 nM.
Regarding `CC(C)(F)CN(CC(=O)c1c(Cl)cncc1Cl)C(=O)c1cnn([C@H]2C[C@@]3(C[C@H](C(=O)O)C3)C2)c1C(F)(F)F` (stereo partly drawn) [Example 847, (4s)-6-(4-((2-(3,5-dichloro-4-pyridinyl)-2-oxoethyl)(2-fluoro-2-methylpropyl)carbamoyl)-5-(trifluoromethyl)-1H-pyrazol-1-yl)spiro[3.3]heptane-2-carboxylic acid], the IC50 was 21.9 nM.
With `C[C@@H]1C[C@@H](n2ncc(C(=O)N(CC(=O)c3c(Cl)cccc3Cl)[C@H]3CCC34CCC4)c2C(F)(F)F)CC[C@@H]1C(=O)O` [Example 848, (1S,2R,4S)-4-(4-((2-(2,6-dichlorophenyl)-2-oxoethyl)((1S)-spiro[3.3]hept-1-yl)carbamoyl)-5-(trifluoromethyl)-1H-pyrazol-1-yl)-2-methylcyclohexanecarboxylic acid] the figure was 1.32 nM; with `C[C@@H]1C[C@@H](n2ncc(C(=O)N(CC(=O)c3c(Cl)cccc3Cl)[C@@H]3CCC34CCC4)c2C(F)(F)F)CC[C@@H]1C(=O)O` [Example 849, (1S,2R,4S)-4-(4-((2-(2,6-dichlorophenyl)-2-oxoethyl)((1R)-spiro[3.3]hept-1-yl)carbamoyl)-5-(trifluoromethyl)-1H-pyrazol-1-yl)-2-methylcyclohexanecarboxylic acid], 8.71 nM.
With `CCOC(C)(C)CN(CC(=O)c1c(Cl)cncc1Cl)C(=O)c1cnn([C@H]2CC[C@](C)(C(=O)O)CC2)c1C(F)(F)F` [Example 850, trans-4-(4-((2-(3,5-dichloro-4-pyridinyl)-2-oxoethyl)(2-ethoxy-2-methylpropyl)carbamoyl)-5-(trifluoromethyl)-1H-pyrazol-1-yl)-1-methylcyclohexanecarboxylic acid] the figure was 12.9 nM.
Consider `C[C@@H]1C[C@@H](n2ncc(C(=O)N(CC(=O)c3c(Cl)cncc3Cl)CC3CCC4(CC3)CC4)c2C(F)(F)F)CC[C@@H]1C(=O)O` [Example 852, (1S,2R,4S)-4-(4-((2-(3,5-dichloro-4-pyridinyl)-2-oxoethyl)(spiro[2.5]oct-6-ylmethyl)carbamoyl)-5-(trifluoromethyl)-1H-pyrazol-1-yl)-2-methylcyclohexanecarboxylic acid], for which the IC50 was 891 nM.
Next, `C[C@]1(C(=O)O)CC[C@H](n2ncc(C(=O)N(CC(=O)c3c(Cl)cncc3Cl)C[C@]34CC[C@H](CC3)O4)c2C(F)(F)F)CC1` [Example 853, trans-4-(4-((2-(3,5-dichloro-4-pyridinyl)-2-oxoethyl)((1s,4s)-7-oxabicyclo[221]hept-1-ylmethyl)carbamoyl)-5-(trifluoromethyl)-1H-pyrazol-1-yl)-1-methylcyclohex anecarboxylic acid]: 17 nM; `C[C@]1(C(=O)O)CC[C@H](n2ncc(C(=O)N(CC(=O)c3c(Cl)cncc3Cl)CC34CC(C3)C4)c2C(F)(F)F)CC1` [Example 854, trans-4-(4-((bicyclo[1.1.1]pent-1-ylmethyl)(2-(3,5-dichloro-4-pyridinyl)-2-oxoethyl)carbamoyl)-5-(trifluoromethyl)-1H-pyrazol-1-yl)-1-methylcyclohexanecarboxylic acid]: 4.68 nM; `C[C@H]1C[C@@](C)(C(=O)O)CC[C@H]1n1ncc(C(=O)N(CC(=O)c2c(Cl)cncc2Cl)CC(C)(C)C)c1C(F)(F)F` [Example 856, (1S,3S,4R)-4-(4-((2-(3,5-dichloro-4-pyridinyl)-2-oxoethyl)(2,2-dimethylpropyl)carbamoyl)-5-(trifluoromethyl)-1H-pyrazol-1-yl)-1,3-dimethylcyclohexanecarboxylic acid]: 67.6 nM.
With `C[C@@H]1C[C@](C)(C(=O)O)CC[C@@H]1n1ncc(C(=O)N(CC(=O)c2c(Cl)cncc2Cl)CC(C)(C)C)c1C(F)(F)F` [Example 857, (1R,3R,4S)-4-(4-((2-(3,5-dichloro-4-pyridinyl)-2-oxoethyl)(2,2-dimethylpropyl)carbamoyl)-5-(trifluoromethyl)-1H-pyrazol-1-yl)-1,3-dimethylcyclohexanecarboxylic acid] the figure was 33.9 nM.
With `CC1(C)[C@@H]2C[C@H](N(CC(=O)c3c(Cl)cccc3Cl)C(=O)c3cnn([C@H]4C[C@@H](CC(=O)O)C4)c3C(F)(F)F)C[C@@H]21` [Example 859, (cis-3-(4-((2-(2,6-dichlorophenyl)-2-oxoethyl)((1R,3r,5S)-6,6-dimethylbicyclo[3.1.0]hex-3-yl)carbamoyl)-5-(trifluoromethyl)-1H-pyrazol-1-yl)cyclobutyl)acetic acid] the figure was 6.03 nM; with `CC(C)(C)CN(CC(=O)c1c(Cl)cncc1Cl)C(=O)c1cnn([C@H]2CC[C@]3(CC2)C[C@@H]3C(=O)O)c1C(F)(F)F` [Example 860, (1R,3r,6R)-6-(4-((2-(3,5-dichloro-4-pyridinyl)-2-oxoethyl)(2,2-dimethylpropyl)carbamoyl)-5-(trifluoromethyl)-1H-pyrazol-1-yl)spiro[2.5]octane-1-carboxylic acid], 11.5 nM.
Regarding `C[C@@H]1C[C@H](n2ncc(C(=O)N(CC(=O)c3c(Cl)cncc3Cl)CC(C)(C)C)c2C(F)(F)F)CC[C@]1(C)C(=O)O` [Example 862, (1S,3S,4R)-4-(4-((2-(3,5-dichloro-4-pyridinyl)-2-oxoethyl)(2,2-dimethylpropyl)carbamoyl)-5-(trifluoromethyl)-1H-pyrazol-1-yl)-1,2-dimethylcyclohexanecarboxylic acid], the IC50 was 38 nM.
Next, `CC1(CN(CC(=O)c2c(Cl)cncc2Cl)C(=O)c2cnn([C@H]3CC[C@](C)(C(=O)O)CC3)c2C(F)(F)F)CC(F)(F)C1` [Example 863, trans-4-(4-((2-(3,5-dichloro-4-pyridinyl)-2-oxoethyl)((3,3-difluoro-1-methylcyclobutyl)methyl)carbamoyl)-5-(trifluoromethyl)-1H-pyrazol-1-yl)-1-methylcyclohexanecarboxylic acid]: 6.46 nM; `C[C@@H]1C[C@H](n2ncc(C(=O)N(CC(=O)c3c(Cl)cncc3Cl)C[C@]34CC[C@H](CC3)O4)c2C(F)(F)F)CC[C@H]1C(=O)O` [Example 867, (1S,2S,4S)-4-(4-((2-(3,5-dichloro-4-pyridinyl)-2-oxoethyl)((1s,4s)-7-oxabicyclo[2.2.1]hept-1-ylmethyl)carbamoyl)-5-(trifluoromethyl)-1H-pyrazol-1-yl)-2-methylcyclohexanecarboxylic acid]: 24.5 nM.

The record behind these values is patent US9365522B2, “Pyrazole amide derivative” (AMGEN INC., priority 2015, dated 2016).
